In patent US7223365B2, “Device and method for detecting the coagulation functions of global, especially primary hemostasis” (priority 2000, dated 2007):

Tested on: platelet function
Test: examination of the coagulation function of the global, in particular the primary, hemostasis; volumetric flow regulated by pressure change in the reaction opening at constant shear rate
Assay type: cell-based
Details: FIG. 29; volumetric flow regulated at specified constant shear rate
Source text: The sealing time and the sealing volume are measurement values for clinical analysis.

CC(=O)Oc1ccccc1C(=O)O [ASA, acetylsalicylic acid]
deposition of platelets in the reaction opening: hardly any deposition of platelets | measurement limits (sealing time / sealing volume): not reached
